Results from US4481201A, “Pharmaceutical composition containing N,N^3 -di-(β-bromopropionyl)-N^1,N^2 -dispirotripiperazinium dichloride” (Vsesojuzny Nauchno-Issledovatelsky Khimoko-Farmasevtichesky …, priority 1981, dated 1984).

Experiments:
Ienssen's sarcoma = assay: Growth of graft Ienssen sarcoma in rats; format: in vivo
Description: (§1) The antitumor activity has been studied on white rats weighing 110-130 g, as well as on white noninbred and inbred mice weighing 17-21 g with ligated tumors. The treatment is started 5-7 days transplanting of solid tumors and the following day after the transplanting of leukotic strains. Use has been made of the following transplantable strains of the tumors:
(§2) (1) rats: Ienssen's sarcoma, sarcoma 45, sarcoma M-1, sarcoma 536;
(§3) The compounds of the general formula (I), wherein X represents Cl^- (compound 1), Br^- (compound 2) are well-soluble in an isotonic solution of sodium chloride and they are administered intraperitoneally. The doses of the compounds have been calculated in mg per kg of the animal bodyweight.

sarcoma 45 = assay: Growth of graft sarcoma 45 in rats; format: in vivo; conditions: for Change in the animal body weight, test / It, % tumor growth suppression index: rats
Description: as §1, §2, §3

sarcoma 536 = assay: Growth of graft sarcoma 536 in rats; format: in vivo
Description: as §1, §2, §3

sarcoma M-1 = assay: Growth of graft sarcoma M-1 in rats; format: in vivo
Description: as §1, §2, §3

sarcoma 180 = assay: Growth of graft sarcoma 180 in mice; format: in vivo, noninbred white mice; conditions: mice, at MTD (dose not given)
Description: as §1
(§4) (2) noninbred white mice: sarcoma 180, sarcoma AK, sarcoma 37, carcinoma HK;
as §3

sarcoma 37 = assay: Growth of graft sarcoma 37 in mice; format: in vivo, noninbred white mice; conditions: mice, at MTD (dose not given)
Description: as §1, §4, §3

sarcoma AK = assay: Growth of graft sarcoma AK in mice; format: in vivo, noninbred white mice; conditions: mice, at MTD (dose not given)
Description: as §1, §4, §3

leukemia La = assay: Life span of mice with transplantable leukemia La; format: in vivo, inbred mice; conditions: leukemia La, MTD
Description: as §1
(§5) (3) inbred mice: leukemia La, leukemia L1210 and P-388.
(§6) The activity of compounds relative to leukosis has been assessed by the life span (It) of treated animals as compared to the control ones. It --index of suppression of leukosis development is calculated by the formula: [formula]

[1] = Toxicity on single and repeated administration to mice; format: in vivo
Procedure: (3) acute toxicity of the compounds upon a single and repeated administration to white noninbred mice places into standard cages with 8 animals in each.
In the investigation of toxic properties of the compounds according to the present invention there has been determined the absolutely lethal dose (DL95), average lethal dose (DL50) and MTD. For compounds 1 and 2 there were determined DL95 and DL50 on healthy white mice with the body mass of 18-21 g at a single and repeated (once a day, daily for 7 days) intraperitoneal administration.

Solubility = format: physicochemical
Procedure: as §3
To a mixture of 3 g of N^1,N^2 -dispirotripiperazinium dichloride, 1.5 g of lithium hydroxide, 1 ml of water and 10 ml of ether a solution of 5.2 g of β-bromopropionic acid chlorid in 5 ml of ether is added under vigorous stirring and at a temperature of 5° to 10° C. The reaction mass is stirred for 2 hours at the temperature of 15° C. The residue is filtered off, dissolved in 10 ml of water; the resulting aqueous solution is poured in 100 ml of methanol.

transplantable leukemia = assay: Activity relative to leukoses of inbred mice (overall); format: in vivo
Description: (2) activity of the compounds relative to leukoses of inbred mice;
as §1, §5, §6

[2] = rats, 21 mg/kg intraperitoneally, 44 injections
[3] = rats, 39 mg/kg intraperitoneally, 5 injections
[4] = rats, 86 mg/kg intraperitoneally, 4 injections
[5] = rats, 88 mg/kg intraperitoneally, 5 injections
[6] = rats, 2,1 mg/kg intraperitoneally, 7 injections
[7] = rats, 4,2 mg/kg intraperitoneally, 7 injections
[8] = 44 mg/kg intraperitoneally, 7 injections
[9] = 83 mg/kg intraperitoneally, 7 injections
[10] = rats, 81 mg/kg intraperitoneally, 6 injections
[11] = mice, single intraperitoneal administration

With `O=C(CCBr)N1CC[N+]2(CC1)CC[N+]1(CCN(C(=O)CCBr)CC1)CC2` [Compound 2] the “Ch/T chemotherapeutical index (ratio of MTD to minimum effective dose)” value (Ienssen's sarcoma; Ienssen sarcoma) was 50, the “Maximum tolerable dose (MTD)” value (Ienssen's sarcoma; rats with Ienssen sarcoma, repeated intraperitoneal administration) was 149 mg/kg and the “Change in the animal body weight, test” value (Ienssen's sarcoma; rats, 8 mg/kg intraperitoneally, 7 injections) was “+21 g”. For the same compound, the “Change in the animal body weight, test” value (Ienssen's sarcoma; [2]) was “+34 g”, the “It, % tumor growth suppression index” value (Ienssen's sarcoma; [2]) was “+90%” and the “Change in the animal body weight, test” value (Ienssen's sarcoma; [3]) was “+14 g”. The “It, % tumor growth suppression index” value (Ienssen's sarcoma; [3]) was “+99%”, the “Change in the animal body weight, test” value (Ienssen's sarcoma; [4]) was “+1 g” and the “It, % tumor growth suppression index” value (Ienssen's sarcoma; [4]) was “+99%”. The “Change in the animal body weight, test” value (Ienssen's sarcoma; [5]) was “+1 g”, the “It, % tumor growth suppression index” value (Ienssen's sarcoma; [5]) was “+99%” and the “Change in the animal body weight, test” value (Ienssen's sarcoma; rats, 149 mg/kg intraperitoneally (MTD), 5 injections) was -30 g. The “Change in the animal body weight, test” value (Ienssen's sarcoma; [6]) was “+5 g”, the “It, % tumor growth suppression index” value (Ienssen's sarcoma; [6]) was “+46%” and the “Change in the animal body weight, test” value (Ienssen's sarcoma; [7]) was “+6 g”. For the same compound, the “It, % tumor growth suppression index” value (Ienssen's sarcoma; [7]) was “+35%”, the “Maximum tolerable dose (MTD)” value (sarcoma 45; rats with sarcoma 45, repeated intraperitoneal administration) was 95 mg/kg and the “Change in the animal body weight, test” value (sarcoma 45; 20 mg/kg intraperitoneally, 7 injections) was -12 g. The “It, % tumor growth suppression index” value (sarcoma 45; 20 mg/kg intraperitoneally, 7 injections, 20 mg/kg) was “+66%”, the “Change in the animal body weight, test” value (sarcoma 45; [8]) was “+4 g” and the “It, % tumor growth suppression index” value (sarcoma 45; [8]) was “+96%”. The “Change in the animal body weight, test” value (sarcoma 45; [9]) was “+6 g”, the “It, % tumor growth suppression index” value (sarcoma 45; [9]) was “+96%” and the “Change in the animal body weight, test” value (sarcoma 45; 95 mg/kg intraperitoneally (MTD), 6 injections) was -6 g. For the same compound, the “Maximum tolerable dose (MTD)” value (sarcoma 536; rats with sarcoma 536, repeated intraperitoneal administration) was 133 mg/kg, the “Change in the animal body weight, test” value (sarcoma 536; [10]) was -15 g and the “It, % tumor growth suppression index” value (sarcoma 536; [10]) was “+52%”. For the same compound, the “Change in the animal body weight, test” value (sarcoma 536; rats, 133 mg/kg intraperitoneally (MTD), 5 injections) was -14 g, the “Maximum tolerable dose (MTD)” value (sarcoma M-1; rats with sarcoma M-1, repeated intraperitoneal administration) was 95 mg/kg and the “Change in the animal body weight, test” value (sarcoma M-1; rats, 95 mg/kg intraperitoneally (MTD), 6 injections) was “+8 g”. For the same compound, the “suppression of sarcoma 180” value (sarcoma 180) was 52%, the “suppression of sarcoma 37” value (sarcoma 37) was 60% and the “suppression of sarcoma AK” value (sarcoma AK) was 81%. The “extension of life span of treated mice as compared to the control” value (leukemia La) was 2 times, the “DL50 (average lethal dose)” value ([1]; mice, repeated intraperitoneal administration (once a day, daily for 7 days)) was 150 mg/kg and the “DL50 (average lethal dose)” value [1, 11] was 1,150 mg/kg. For the same compound, the “DL95 (absolutely lethal dose)” value [1, 11] was 1,250 mg/kg, the MTD ([1]; repeated intraperitoneal administration) was 125 mg/kg and the “solubility in an isotonic solution of sodium chloride” value (Solubility) was “well-soluble”. For the same compound, the “effect on transplantable leukemia in mice” value (transplantable leukemia) was “clearly pronounced antileukotic effect”.
